Source: patent US20090054453A1, “Novel Tetralins as 5-HT6 Modulators” (priority 2006, published 2009)

Molecular target: T1, rat striatal 5-HT6 receptors (Rattus norvegicus, UniProt P31388)
T1 construct: Striatal tissue from adult rats (Sprague-Dawley, 320-370 g, B & K Sweden) were dissected out, weighed and homogenized; from tissue; host or cells: rat striatum (Sprague-Dawley) membranes
Experiment: [125I]SB258585 binding to rat striatal 5-HT6 receptors
Details: competition with [125I]SB258585, rat striatal membranes
Description: Method for [125I]SB258585 binding to rat striatal 5-HT6 receptors
[^125I]SB258585 (1) with specific radioactivity 2000 Ci/mmol was purchased from Amersham Biosciences Europe GmbH, Freiburg, Germany. Other chemicals were purchased from commercial sources and were of analytical grade.
Striatal tissue from adult rats (Sprague-Dawley, 320-370 g, B & K Sweden) were dissected out, weighed and homogenized in buffer containing 50 mM Tris-HCl, 4 mM MgCl2, 1 mM EDTA, 10 μM pargyline and protease inhibitor (Complete, Roche Diagnostics) pH 7.4 using an Ultra-Turrax T8 (IKA Labortechnik, Germany). The tissue homogenate was centrifuged at 48 000×g for 10 min and the pellet was resuspended and recentrifuged as above. […]
Saturation binding studies were carried out in duplicate with 1-3 mg w.w. per tube in 0.5 ml buffer (50 mM Tris, 4 mM MgCl2, 100 mM NaCl, 1 mM EDTA, 5 mM ascorbate and 10 μM pargyline at pH 7.4), 0.2 nM [^125I]SB258585 and unlabelled SB258585 to give a final concentration range of 0.23-20 nM (12 conc.). Non-specific binding was determined in the presence of 10 μM methiothepin. […] The radioactivity was determined in a Packard Tri-Carb 2900TR liquid scintillation counter. Data were analyzed by non-linear regression analyses using PRISM 4.00 (GraphPad Software Inc., San Diego, Calif.). […]

T1 sequence (P31388 whole entry): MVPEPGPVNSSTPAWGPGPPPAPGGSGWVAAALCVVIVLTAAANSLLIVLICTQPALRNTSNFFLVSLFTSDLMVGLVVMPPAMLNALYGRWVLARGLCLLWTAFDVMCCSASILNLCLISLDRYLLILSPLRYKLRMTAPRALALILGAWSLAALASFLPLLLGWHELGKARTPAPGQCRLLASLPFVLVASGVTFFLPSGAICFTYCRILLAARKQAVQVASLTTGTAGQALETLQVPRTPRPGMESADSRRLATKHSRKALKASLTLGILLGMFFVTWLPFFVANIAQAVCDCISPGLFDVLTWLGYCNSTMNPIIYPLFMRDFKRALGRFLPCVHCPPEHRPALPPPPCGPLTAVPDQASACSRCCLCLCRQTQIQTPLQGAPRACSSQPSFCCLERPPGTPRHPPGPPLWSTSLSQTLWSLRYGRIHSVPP

Ki: 0.8 nM
SMILES: CN1CCN(c2cccc3c2C[C@H](NS(=O)(=O)c2ccc4ccccc4c2)CC3)CC1 [Example 12, N-[(2R)-8-(4-Methylpiperazin-1-yl)-1,2,3,4-tetrahydronaphthalen-2-yl]naphthalene-2-sulfonamide]
